From the NIST ThermoML archive (doi:10.1016/j.jct.2005.06.011)

Columns and labels:
[1] = refractive index (Na D-line) (dimensionless); xn = mol fraction of the nth substance listed; details: 101 kPa, Liquid
[2] = xn = mol fraction of the nth substance listed; details: 101 kPa, Liquid; for speed of sound: Linear variable-path acoustic interferometer

CC(C)CCO [3-methylbutan-1-ol] + CC1CCCCC1
Details	mass density, 298.15 K [kg/m3]	mass density, 303.15 K [kg/m3]	mass density, 308.15 K [kg/m3]	refractive index, 298.15 K	refractive index, 303.15 K	refractive index, 308.15 K	speed of sound, 298.15 K [m/s]	viscosity, 298.15 K [mPa·s]	viscosity, 303.15 K [mPa·s]	viscosity, 308.15 K [mPa·s]
[1], x2 = 0	–	–	–	1.4056	1.4034	1.4013	–	–	–	–
[1], x2 = 0.1002	–	–	–	1.4073	1.405	1.4028	–	–	–	–
[1], x2 = 0.2011	–	–	–	1.4089	1.4066	1.4043	–	–	–	–
[1], x2 = 0.3001	–	–	–	1.4105	1.4081	1.4058	–	–	–	–
[1], x2 = 0.4016	–	–	–	1.4121	1.4097	1.4073	–	–	–	–
[1], x2 = 0.5019	–	–	–	1.4137	1.4112	1.4088	–	–	–	–
[1], x2 = 0.6012	–	–	–	1.4153	1.4128	1.4103	–	–	–	–
[1], x2 = 0.702	–	–	–	1.4169	1.4144	1.4118	–	–	–	–
[1], x2 = 0.8011	–	–	–	1.4185	1.4159	1.4133	–	–	–	–
[1], x2 = 0.9009	–	–	–	1.4201	1.4174	1.4148	–	–	–	–
[2], x2 = 0	820.17	816.28	812.34	–	–	–	1259	2.779	2.258	1.844
[2], x2 = 0.1002	814.65	810.69	806.74	–	–	–	1255	2.569	2.144	1.719
[2], x2 = 0.2011	809.13	805.14	801.13	–	–	–	1250	2.359	1.976	1.593
[2], x2 = 0.3001	803.62	799.57	795.53	–	–	–	1246	2.151	1.81	1.47
[2], x2 = 0.4016	798.1	794.02	789.92	–	–	–	1242	1.938	1.641	1.343
[2], x2 = 0.5019	792.58	788.45	784.32	–	–	–	1238	1.728	1.472	1.217
[2], x2 = 0.6012	787.06	782.89	778.72	–	–	–	1234	1.519	1.306	1.093
[2], x2 = 0.702	781.54	777.33	773.11	–	–	–	1230	1.307	1.136	0.9662
[2], x2 = 0.8011	776.03	771.78	767.51	–	–	–	1226	1.097	0.9594	0.8412
[2], x2 = 0.9009	770.51	766.22	761.9	–	–	–	1221	0.8861	0.8008	0.7156
